Records with an inconclusive call do not appear. Active and inactive are the calls of the source.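 The calls were made as follows: active = EC50 no more than tenfold above the top concentration tested, with valid fit and all samples agreeing; inconclusive = flat fit at 30 to 70% inhibition, poor fit, or split samples; inactive = EC50 beyond tenfold the top concentration tested.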 A value given as a limit tells only on which side of the number the result lay.

For this assay, the system named is BJeLR fibroblast viability, Alamar Blue fluorescence, 48 h. Briefly: BJeLR fibroblast growth inhibition, viability readout – cell-based, alamar blue fluorescence, 48 h, cherrypicked samples, dose response (AID 2610;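 also: BJ fibroblasts with hTERT plus SV40 large and small T and HRAS V12; EC50 for loss of viable cells so potency reflects cytotoxic compounds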). (Alamar Blue is a resazurin reagent that responds to reducing activity.)
One may read the EC50 as the concentration at which the effect is half-maximal. Turning to `COC(=O)C[C@](O)(CCCC(C)(C)O)C(=O)O[C@@H]1C(OC)=C[C@]23CCCN2CCc2cc4c(cc2[C@H]13)OCO4`, the EC50 is under 34.7 nM.
As for `O=C(COc1ccc([N+](=O)[O-])cc1)Nc1ccc(C(=O)NCc2cccnc2)cc1`, the EC50 was > 13300 nM (inactive).
Then `COc1cccc(/C=C2\SC(=S)N(CCCC(=O)N(CCO)c3ccccc3)C2=O)c1`, with 2530 nM.
In the case of `ClC1=C(Cl)C(Cl)=C(Cl)C1=C/C=C/c1ccccc1`, the EC50 was 1040 nM.
The same measure for `COc1ccc(-c2coc3cc4oc(=O)c5ccccc5c4cc23)cc1F`: under 104 nM; for `COc1cc([C@H]2c3[nH]c4ccccc4c3C[C@H]3C(=O)N4[C@@H](c5cc(OC)c(OC)c(OC)c5)c5[nH]c6ccccc6c5C[C@H]4C(=O)N23)cc(OC)c1OC`: > 13300 nM (inactive).
The same measure for `C/C(=N\Nc1ncnc2sc(C)c(C)c12)c1ccccn1`: under 104 nM; for `Cc1cc(N)c2cc(NC(=O)/C=C/c3ccccc3Cl)ccc2n1`: 1240 nM; for `Cc1ccc(C(=O)c2cc([N+](=O)[O-])ccc2N2CCCCC2)c(C)c1`: under 104 nM.
The same measure for `COC(=O)c1cccc(Nc2c3c(nc4ccccc24)CCC3)c1`: 2600 nM.
Turning to `COc1ccccc1-c1nnc2sc(-c3ccc(N(C)C)cc3)nn12`, the concentration for a half-maximal effect (EC50) was under 104 nM.
For `COc1cccc2c1C(=O)c1c(O)c3c(c(O)c1C2=O)C[C@@](O)(C(=O)CO)C[C@@H]3O[C@H]1C[C@H](N)[C@@H](O)[C@H](C)O1`, the EC50 is under 104 nM.
The same measure for `C[C@H]1O[C@@H](O[C@H]2[C@@H](O)C[C@H](O[C@H]3[C@@H](O)C[C@H](O[C@H]4CC[C@@]5(C)[C@H](CC[C@@H]6[C@@H]5C[C@@H](O)[C@]5(C)[C@@H](C7=CC(=O)OC7)CC[C@]65O)C4)O[C@@H]3C)O[C@@H]2C)C[C@H](O)[C@@H]1O`: under 104 nM; for `S=C(N/N=C/c1ccc2ncccc2c1)Nc1ccccc1`: > 13300 nM (inactive); for `Oc1ccccc1N=Nc1nc(-c2ccccc2)c(-c2ccccc2)[nH]1`: 176 nM.
The same measure for `O=C1C(=O)c2ccc(-c3ccccc3)cc2-c2ccccc21`: 926 nM.
In the case of `COc1ccc(/C=N/NC(=O)c2[nH]c3ccc(Br)cc3c2-c2ccccc2)cc1`, the EC50 is under 70.3 nM.
Then `Cn1c(/C=C/c2ccc([N+](=O)[O-])o2)nc2ccccc2c1=O`, with 544 nM; and `Cc1cc(C)c2c(CCl)cc(=O)oc2c1`, with 116 nM; and `COc1ccc(S(=O)(=O)N2c3ccc(F)cc3CCC2C)cc1` (stereo unspecified), with under 104 nM.
The same measure for `O=C(/C=C/c1ccc(F)cc1)NNC(=O)CCN1CCN(Cc2ccccc2)CC1`: > 13300 nM (inactive); for `CC[C@@]1(O)C(=O)OCc2c1cc1n(c2=O)Cc2cc3c(N)cccc3nc2-1`: under 30.7 nM.
As for `CC[C@@]1(O)C(=O)OCc2c1cc1n(c2=O)Cc2cc3c(CN(C)C)c(O)ccc3nc2-1`, the EC50 was under 39.2 nM.
Then `O=C(NCCOc1cccnc1)c1ccc(OC2CCN(Cc3ccccn3)CC2)cc1`, with under 91.9 nM; and `Cc1sc2ncnc(N/N=C/c3ccccc3O)c2c1C`, with 3700 nM; and `COc1ccccc1N(C(=O)CCl)c1cn(C(C)=O)c2ccccc12`, with 717 nM.
For `N#CC(C#N)=NNc1ccc(-n2ccc(C(F)(F)F)n2)cc1`, the EC50 was 2650 nM.
On to `O=C(Cc1ccc([N+](=O)[O-])cc1)N/N=C/c1ccc([N+](=O)[O-])o1`, for which the EC50 is 3540 nM.
The same measure for `COCc1c(C(C)C)nc(C(C)C)c(/C=C/[C@@H](O)C[C@@H](O)CC(=O)O)c1-c1ccc(F)cc1`: under 104 nM; for `C[C@@H]1C=CC(=O)O[C@@H]1c1ccc(C(F)(F)F)cc1`: 1970 nM; for `Cc1ccc(C)c(NS(=O)(=O)c2ccc(-c3cnc(C4CC4)o3)cc2)c1`: under 104 nM.
In the case of `COc1ccccc1/C=C1\SC(=S)N(CCC(=O)NCCCn2ccnc2)C1=O`, the EC50 was > 13300 nM (inactive).
The same measure for `COc1ccc(N(C(=O)CCl)C(C(=O)NCCc2ccccc2)c2cccs2)cc1` (stereo unspecified): 428 nM; for `CCOc1ccc2nc(NC(=O)c3ccoc3C)sc2c1`: > 13300 nM (inactive).
Then `CCCCCCCCCC[n+]1cccc2c3ccccc3ccc21`, with 8030 nM; and `Nc1nc(CCl)nc(Nc2cccc3ccccc23)n1`, with 493 nM; and `CC(C)C(=O)Nc1ccc(C(=O)NCc2cccnc2)cc1`, with 742 nM.
Regarding `COc1ccc(N2C(=O)/C(=C/c3ccc(C)o3)C(=O)NC2=S)cc1`, the EC50 was > 13300 nM (inactive).
As for `CCCCCN=C(N)N/N=C/c1c[nH]c2ccc(OC)cc12`, the EC50 was 2980 nM.
The same measure for `Cc1ccc(NC(=O)[C@H](Cc2c[nH]c3ccccc23)NC(=O)[C@@H]2Cc3ccccc3CN2)c(C)c1`: > 13300 nM (inactive).
As for `COc1ccc(C[C@H]2NC[C@H](O)[C@H]2OC(C)=O)cc1`, the 50% effective concentration (EC50) is under 64.7 nM.
With `COc1cc(SC)ccc1C(=O)Nc1nc2ccccc2[nH]1`, the EC50 is > 13300 nM (inactive).
Then `Cn1cnc([N+](=O)[O-])c1Sc1ncnc2nc[nH]c12`, with > 13300 nM (inactive).
As for `C/C(=N\Nc1ncc(Cl)cc1Cl)c1ccccn1`, the EC50 was under 22.2 nM.
Then `CCOc1ccc(C2=Nn3c(nnc3-c3ccccc3OC)SC2)cc1`, with under 104 nM.
Then `O=S(=O)(c1ccc(NC(=S)NCc2cccnc2)cc1)N1CCCCC1`, with under 133 nM; and `COc1ccc(NC(=O)CN(C)S(=O)(=O)c2ccc3[nH]c(=O)oc3c2)cc1`, with > 13300 nM (inactive).
The same measure for `CC(=O)Nc1ccc(NC(=O)CN(c2cccc([N+](=O)[O-])c2)S(C)(=O)=O)cc1`: 1410 nM.
Take `CCOC(=O)c1c(CSC(=N)N)n(-c2ccc(C)cc2)c2cc(Br)c(OC(C)=O)cc12`: the EC50 was > 13300 nM (inactive).
The same measure for `Cc1cccc(NC2=NC(C)(C)N=C(N)N2)c1`: > 13300 nM (inactive); for `COc1ccccc1C1C2=C(COC2=O)Nc2cc3c(cc21)OCO3` (stereo unspecified): under 104 nM; for `COc1ccccc1N1CCN(C(=O)c2cc(=O)c3cc(C)cc(C)c3o2)CC1`: under 104 nM.
`Cn1cnc(Sc2ncnc3nc[nH]c23)c1[N+](=O)[O-]`: the EC50 is > 13300 nM (inactive).
`CC[C@@]1(O)C(=O)OCc2c1cc1n(c2=O)Cc2cc3ccccc3nc2-1`: the EC50 is under 30.4 nM.
Then `CC1CCCCC1N(C)C1CCN(C(=O)CNC(=O)/C=C/c2cccc(Cl)c2)CC1` (stereo unspecified), with 1290 nM.
The same measure for `Clc1ccccc1Nc1nnc(-c2ccncc2)s1`: > 13300 nM (inactive); for `CCN(CC)c1ccc(/C=N/NC(=O)c2ccc3nc[nH]c3c2)c(O)c1`: 1530 nM.
The same measure for `O=S(=O)(c1ccc(Cl)cc1)c1snnc1-c1ccccc1`: 594 nM; for `NS(=O)(=O)c1ccc(NC(=O)c2cc(-c3cccs3)nc3ccccc23)cc1`: > 13300 nM (inactive); for `Cc1sc2cc3c(c(C(=O)c4ccccc4)[n+]2c1C)-c1cccc2cccc-3c12`: 10500 nM.
As to `CCc1ccc(/C=C2/SC(=S)N(CCC(=O)NCCCN3CCOCC3)C2=O)cc1`, the EC50 is 2420 nM.
Then `O=Cc1cc2ccccc2nc1SCc1ccc(Cl)c(Cl)c1`, with under 104 nM; and `CCCCCCCCCCn1c2c(c(=N)c3c1CCC3)CCC2`, with 820 nM.
Then `Cc1cccc(C)c1NS(=O)(=O)c1ccc(-c2cnc(C3CC3)o2)cc1`, with under 104 nM; and `O=C(NC(Nc1nc2ccc([N+](=O)[O-])cc2s1)(C(F)(F)F)C(F)(F)F)c1ccccc1`, with 239 nM; and `CSc1ccc(COC(=O)c2cc([N+](=O)[O-])ccc2N2CCOCC2)cc1`, with under 104 nM.
Consider `CN1C/C(=C/c2ccncc2)C(=O)/C(=C/c2ccncc2)C1`, for which the EC50 was 555 nM.
The same measure for `O=C1/C(=C/c2ccncc2)CCC/C1=C\c1ccncc1`: 539 nM; for `COc1cccc(C(=O)N/N=C(/c2ccccc2)c2ccccn2)c1`: 821 nM; for `COc1cccc(N(C(=O)CCl)C(C(=O)NCCc2ccccc2)c2cccs2)c1` (stereo unspecified): 212 nM.
The same measure for `COCCCNC(=O)c1ccc2c3c(onc13)-c1ccccc1C2=O`: 3150 nM.
Take `Cc1cccc(Nc2nc(N)nc(CCl)n2)c1C`: the EC50 was 468 nM.
Then `O=C(Nc1ccc([N+](=O)[O-])cc1)Nc1ccon1`, with 380 nM; and `Cc1cccc(N2CCN(C(=S)Nc3ccc4nc(N5CCN(C)CC5)cc(C)c4c3)CC2)c1C`, with 864 nM.
As to `COc1cccc(N2C(N)=NC(N)=NC2(C)C)c1`, the EC50 is > 13300 nM (inactive).
Turning to `CCC(C)C(=O)OCC1(c2ccc(C)cc2OC(=O)C(C)C)CO1` (stereo unspecified), the EC50 was > 13300 nM (inactive).
For `Cc1cccnc1Nc1nc(-c2ccccn2)cs1`, the EC50 was under 142 nM.
Then `COc1ccc(C(C(=O)NC2CCCCC2)N(C(=O)CCl)c2cccc(Cl)c2)cc1` (stereo unspecified), with under 73.2 nM.
Then `COc1cccc(N2CCN(C(=O)c3ccc(CS(=O)c4ccc(C)cc4)o3)CC2)c1` (stereo unspecified), with 165 nM; and `COc1cc2c(c(OC)c1OC)-c1ccc(O)c(=O)cc1C(NC(C)=O)CC2` (stereo unspecified), with under 104 nM.
With `O=C1C=C(c2cccs2)C[C@H](c2ccccc2)[C@H]1n1nnc([N+](=O)[O-])n1`, the EC50 was under 104 nM.
The same measure for `O=C(N/N=C/c1ccc([N+](=O)[O-])o1)c1cc2ccccc2o1`: 7500 nM; for `O=S1(=O)C=C(Sc2nc3ccccc3s2)c2ccccc21`: 316 nM.
The same measure for `CC(C)(C)c1ccc(C(=O)Nc2ccc(C(=O)NCc3cccnc3)cc2)cc1`: under 118 nM; for `CC(C)(C)c1ccc(-n2nc(C#N)c(Cl)cc2=O)cc1`: 963 nM; for `CC(C)(C)c1nnc(N/N=C/c2cc(Br)ccc2O)n(N)c1=O`: 1400 nM.
Take `CCc1ccc(/C=C2/SC(=S)N(CCC(=O)Nc3cccnc3)C2=O)cc1`: the EC50 is 2750 nM.
On to `Cc1cccc(NS(=O)(=O)c2ccc(-c3cnc(C4CC4)o3)cc2)c1C`, for which the EC50 is under 104 nM.
Then `CC1(C)C[C@H]2C=C(C=O)[C@]3(C=O)C[C@]3(C)[C@H]2C1`, with 580 nM; and `CCN(CC)c1ccc2c(cc1=O)[C@@H](NC)CCc1cc(OC)c(OC)c(OC)c1-2`, with 380 nM.
Then `CCOCCOC(=O)c1[nH]c2c(c1C)C(=O)CC(c1ccccc1)C2` (stereo unspecified), with 262 nM.

For the origin of these results see PubChem BioAssay AID2610 (Broad Institute, 2010).
